Test results: ChEMBL document CHEMBL4507256 (2021)

Tests used:
[1] = biological target: Mitogen-activated protein kinase 6 (Homo sapiens) (UniProt Q16659); details: Compound concentration 1000.0 nM
[2] = biological target: NUAK family SNF1-like kinase 1 (Homo sapiens) (UniProt O60285); details: Compound concentration 1000.0 nM
[3] = biological target: Testis-specific serine/threonine-protein kinase 1 (Homo sapiens) (UniProt Q9BXA7); details: Compound concentration 1000.0 nM
[4] = biological target: Serine/threonine-protein kinase BRSK2 (Homo sapiens) (UniProt Q8IWQ3); details: Compound concentration 1000.0 nM
[5] = system: Phosphatidylinositol 4,5-bisphosphate 3-kinase catalytic subunit alpha isoform (Homo sapiens), P42336 [E545K]; details: Compound concentration 1000.0 nM
[6] = biological target: Alpha-2B adrenergic receptor (Homo sapiens) (UniProt P18089); details: Compound concentration 10.0 uM
[7] = biological target: Microtubule-associated serine/threonine-protein kinase 1 (Homo sapiens) (UniProt Q9Y2H9); details: Compound concentration 1000.0 nM
[8] = biological target: Fibroblast growth factor receptor 1 (Homo sapiens) (UniProt P11362); details: Compound concentration 1000.0 nM
[9] = biological target: Mitogen-activated protein kinase 11 (Homo sapiens) (UniProt Q15759); details: Compound concentration 1000.0 nM
[10] = biological target: 5-hydroxytryptamine receptor 1A (Homo sapiens) (UniProt P08908); details: Compound concentration 10.0 uM
[11] = biological target: Dual specificity protein kinase CLK1 (Homo sapiens) (UniProt P49759); details: Compound concentration 1000.0 nM
[12] = biological target: Serine/threonine-protein kinase tousled-like 1 (Homo sapiens) (UniProt Q9UKI8); details: Compound concentration 1000.0 nM
[13] = biological target: Ephrin type-B receptor 2 (Homo sapiens) (UniProt P29323); details: Compound concentration 1000.0 nM
[14] = system: Serine/threonine-protein kinase B-raf (Homo sapiens), P15056 [V600E]; details: Compound concentration 1000.0 nM
[15] = biological target: TGF-beta receptor type-1 (Homo sapiens) (UniProt P36897); details: Compound concentration 1000.0 nM
[16] = biological target: Serine/threonine-protein kinase pim-1 (Homo sapiens) (UniProt P11309); details: Compound concentration 1000.0 nM
[17] = biological target: Focal adhesion kinase 1 (Homo sapiens) (UniProt Q05397); details: Compound concentration 1000.0 nM
[18] = biological target: Tyrosine-protein kinase JAK1 (Homo sapiens) (UniProt P23458); details: Compound concentration 1000.0 nM
[19] = biological target: Activin receptor type-2A (Homo sapiens) (UniProt P27037); details: Compound concentration 1000.0 nM
[20] = biological target: 5-hydroxytryptamine receptor 6 (Homo sapiens) (UniProt P50406); details: Compound concentration 10.0 uM
[21] = biological target: Cyclin-dependent kinase-like 3 (Homo sapiens) (UniProt Q8IVW4); details: Compound concentration 1000.0 nM
[22] = system: Tyrosine-protein kinase ABL1 (Homo sapiens), P00519 [F317I]; details: Compound concentration 1000.0 nM
[23] = biological target: Tyrosine-protein kinase receptor TYRO3 (Homo sapiens) (UniProt Q06418); details: Compound concentration 1000.0 nM
[24] = biological target: Interferon-induced, double-stranded RNA-activated protein kinase (Homo sapiens) (UniProt P19525); details: Compound concentration 1000.0 nM
[25] = biological target: Mitogen-activated protein kinase kinase kinase 19 (Homo sapiens) (UniProt Q56UN5); details: Compound concentration 1000.0 nM
[26] = biological target: Serine/threonine-protein kinase MARK2 (Homo sapiens) (UniProt Q7KZI7); details: Compound concentration 1000.0 nM
[27] = biological target: 5-hydroxytryptamine receptor 2A (Homo sapiens) (UniProt P28223); details: Compound concentration 10.0 uM
[28] = biological target: Mu-type opioid receptor (Homo sapiens) (UniProt P35372); details: Compound concentration 10.0 uM
[29] = biological target: Tyrosine-protein kinase ABL1 (Homo sapiens) (UniProt P00519); details: Compound concentration 1000.0 nM
[30] = system: Hepatocyte growth factor receptor (Homo sapiens), P08581 [M1250T]; details: Compound concentration 1000.0 nM
[31] = biological target: Cyclin-G-associated kinase (Homo sapiens) (UniProt O14976); details: Compound concentration 1000.0 nM
[32] = biological target: Death-associated protein kinase 2 (Homo sapiens) (UniProt Q9UIK4); details: Compound concentration 1000.0 nM
[33] = biological target: Serine/threonine-protein kinase WNK1 (Homo sapiens) (UniProt Q9H4A3); details: Compound concentration 1000.0 nM
[34] = biological target: Eukaryotic translation initiation factor 2-alpha kinase 1 (Homo sapiens) (UniProt Q9BQI3); details: Compound concentration 1000.0 nM
[35] = biological target: Receptor-type tyrosine-protein kinase FLT3 (Homo sapiens) (UniProt P36888); details: Compound concentration 1000.0 nM
[36] = biological target: Serine/threonine-protein kinase N1 (Homo sapiens) (UniProt Q16512); details: Compound concentration 1000.0 nM
[37] = biological target: Alpha-1B adrenergic receptor (Homo sapiens) (UniProt P35368); details: Compound concentration 10.0 uM
[38] = biological target: D(1B) dopamine receptor (Homo sapiens) (UniProt P21918); details: Compound concentration 10.0 uM
[39] = biological target: Serine/threonine-protein kinase SIK3 (Homo sapiens) (UniProt Q9Y2K2); details: Compound concentration 1000.0 nM
[40] = system: Receptor-type tyrosine-protein kinase FLT3 (Homo sapiens), P36888 [UNDEFINED MUTATION]; details: Compound concentration 1000.0 nM
[41] = biological target: NUAK family SNF1-like kinase 2 (Homo sapiens) (UniProt Q9H093); details: Compound concentration 1000.0 nM
[42] = biological target: Tyrosine-protein kinase Srms (Homo sapiens) (UniProt Q9H3Y6); details: Compound concentration 1000.0 nM
[43] = biological target: Non-receptor tyrosine-protein kinase TYK2 (Homo sapiens) (UniProt P29597); details: Compound concentration 1000.0 nM
[44] = biological target: Alpha-1A adrenergic receptor (Homo sapiens) (UniProt P35348); details: Compound concentration 10.0 uM
[45] = biological target: Tyrosine-protein kinase Fer (Homo sapiens) (UniProt P16591); details: Compound concentration 1000.0 nM

Sequence of Serine/threonine-protein kinase SIK3 (Homo sapiens) (Q9Y2K2 whole entry, looked up): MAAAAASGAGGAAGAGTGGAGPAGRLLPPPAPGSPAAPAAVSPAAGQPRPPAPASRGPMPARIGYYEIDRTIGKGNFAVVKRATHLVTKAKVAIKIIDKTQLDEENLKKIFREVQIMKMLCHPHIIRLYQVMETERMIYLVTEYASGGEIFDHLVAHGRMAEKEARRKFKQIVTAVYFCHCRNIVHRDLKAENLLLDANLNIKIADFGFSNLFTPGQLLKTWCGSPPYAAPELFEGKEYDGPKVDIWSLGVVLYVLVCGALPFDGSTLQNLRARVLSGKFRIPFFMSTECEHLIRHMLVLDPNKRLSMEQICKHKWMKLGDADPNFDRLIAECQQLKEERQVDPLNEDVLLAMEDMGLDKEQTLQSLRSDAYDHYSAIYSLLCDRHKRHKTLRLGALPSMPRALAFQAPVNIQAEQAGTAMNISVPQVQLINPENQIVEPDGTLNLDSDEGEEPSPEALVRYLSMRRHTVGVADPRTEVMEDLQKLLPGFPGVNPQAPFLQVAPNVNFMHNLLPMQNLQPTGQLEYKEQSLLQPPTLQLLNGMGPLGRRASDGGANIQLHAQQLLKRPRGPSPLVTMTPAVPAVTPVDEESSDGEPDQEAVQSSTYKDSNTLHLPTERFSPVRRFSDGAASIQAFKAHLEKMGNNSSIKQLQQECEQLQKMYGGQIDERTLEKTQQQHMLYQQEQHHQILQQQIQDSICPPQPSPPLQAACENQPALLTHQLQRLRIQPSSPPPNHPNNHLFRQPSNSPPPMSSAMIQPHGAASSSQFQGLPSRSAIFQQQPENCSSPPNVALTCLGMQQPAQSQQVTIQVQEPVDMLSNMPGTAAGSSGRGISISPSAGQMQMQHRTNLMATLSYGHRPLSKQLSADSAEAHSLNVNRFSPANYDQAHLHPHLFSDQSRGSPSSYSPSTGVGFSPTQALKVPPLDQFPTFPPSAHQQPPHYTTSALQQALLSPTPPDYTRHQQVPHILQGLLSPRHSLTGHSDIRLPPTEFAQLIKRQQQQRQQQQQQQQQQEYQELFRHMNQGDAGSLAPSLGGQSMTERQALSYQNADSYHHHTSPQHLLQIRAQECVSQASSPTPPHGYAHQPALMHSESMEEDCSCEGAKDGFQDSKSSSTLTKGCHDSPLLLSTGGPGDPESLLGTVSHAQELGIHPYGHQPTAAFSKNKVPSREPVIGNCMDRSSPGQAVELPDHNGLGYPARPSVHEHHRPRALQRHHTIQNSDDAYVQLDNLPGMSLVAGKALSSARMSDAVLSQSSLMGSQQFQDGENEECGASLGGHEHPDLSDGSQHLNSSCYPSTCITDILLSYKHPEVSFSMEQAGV
Sequence of Focal adhesion kinase 1 (Homo sapiens) (Q05397 2-1052 limits assumed): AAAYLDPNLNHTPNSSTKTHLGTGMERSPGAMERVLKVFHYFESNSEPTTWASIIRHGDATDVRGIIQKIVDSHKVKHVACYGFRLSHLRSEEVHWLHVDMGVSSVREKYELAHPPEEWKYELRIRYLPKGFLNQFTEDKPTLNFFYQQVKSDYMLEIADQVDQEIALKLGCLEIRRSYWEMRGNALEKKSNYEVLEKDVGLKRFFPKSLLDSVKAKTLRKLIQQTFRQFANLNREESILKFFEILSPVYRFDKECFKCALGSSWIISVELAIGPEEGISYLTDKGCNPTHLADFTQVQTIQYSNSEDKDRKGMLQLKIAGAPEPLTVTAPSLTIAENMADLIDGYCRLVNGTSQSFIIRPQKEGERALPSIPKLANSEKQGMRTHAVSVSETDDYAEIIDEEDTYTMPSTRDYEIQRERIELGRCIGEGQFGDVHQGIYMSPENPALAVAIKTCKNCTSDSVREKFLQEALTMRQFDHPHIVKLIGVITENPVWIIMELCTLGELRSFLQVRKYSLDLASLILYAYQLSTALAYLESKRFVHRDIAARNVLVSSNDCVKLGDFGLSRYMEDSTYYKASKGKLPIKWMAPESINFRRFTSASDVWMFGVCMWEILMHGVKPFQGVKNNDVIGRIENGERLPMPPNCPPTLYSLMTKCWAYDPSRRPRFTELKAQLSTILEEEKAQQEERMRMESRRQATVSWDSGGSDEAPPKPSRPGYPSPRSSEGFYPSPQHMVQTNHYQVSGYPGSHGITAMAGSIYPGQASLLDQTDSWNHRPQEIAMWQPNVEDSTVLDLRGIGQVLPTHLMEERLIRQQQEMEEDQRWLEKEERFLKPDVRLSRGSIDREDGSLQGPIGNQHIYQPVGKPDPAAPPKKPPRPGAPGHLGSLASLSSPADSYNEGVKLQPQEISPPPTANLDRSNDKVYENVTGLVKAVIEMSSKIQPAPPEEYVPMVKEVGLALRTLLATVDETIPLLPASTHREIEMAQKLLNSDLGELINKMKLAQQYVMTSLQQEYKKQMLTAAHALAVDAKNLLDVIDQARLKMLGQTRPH
Sequence of Fibroblast growth factor receptor 1 (Homo sapiens) (P11362 22-822 limits assumed): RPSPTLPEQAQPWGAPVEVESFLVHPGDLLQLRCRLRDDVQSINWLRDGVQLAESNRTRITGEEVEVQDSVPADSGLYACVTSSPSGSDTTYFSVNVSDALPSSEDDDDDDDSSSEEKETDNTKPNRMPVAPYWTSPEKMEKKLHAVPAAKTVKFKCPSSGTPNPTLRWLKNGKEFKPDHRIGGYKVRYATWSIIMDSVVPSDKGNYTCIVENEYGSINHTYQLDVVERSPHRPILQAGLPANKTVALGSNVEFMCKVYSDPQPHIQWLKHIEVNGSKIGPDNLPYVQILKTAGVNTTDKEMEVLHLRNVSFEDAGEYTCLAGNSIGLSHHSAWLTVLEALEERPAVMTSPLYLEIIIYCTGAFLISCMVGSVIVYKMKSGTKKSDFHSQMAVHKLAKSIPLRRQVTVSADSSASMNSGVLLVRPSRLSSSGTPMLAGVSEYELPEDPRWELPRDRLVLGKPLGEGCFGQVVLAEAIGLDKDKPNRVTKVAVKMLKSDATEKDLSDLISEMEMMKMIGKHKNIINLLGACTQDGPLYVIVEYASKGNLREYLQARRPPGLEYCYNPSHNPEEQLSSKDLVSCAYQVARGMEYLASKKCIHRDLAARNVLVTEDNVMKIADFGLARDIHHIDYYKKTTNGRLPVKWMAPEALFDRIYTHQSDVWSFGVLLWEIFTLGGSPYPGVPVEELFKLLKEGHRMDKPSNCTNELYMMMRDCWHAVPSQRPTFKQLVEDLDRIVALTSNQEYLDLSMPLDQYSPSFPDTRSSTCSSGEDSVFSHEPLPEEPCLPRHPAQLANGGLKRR
Sequence of NUAK family SNF1-like kinase 1 (Homo sapiens) (O60285 whole entry): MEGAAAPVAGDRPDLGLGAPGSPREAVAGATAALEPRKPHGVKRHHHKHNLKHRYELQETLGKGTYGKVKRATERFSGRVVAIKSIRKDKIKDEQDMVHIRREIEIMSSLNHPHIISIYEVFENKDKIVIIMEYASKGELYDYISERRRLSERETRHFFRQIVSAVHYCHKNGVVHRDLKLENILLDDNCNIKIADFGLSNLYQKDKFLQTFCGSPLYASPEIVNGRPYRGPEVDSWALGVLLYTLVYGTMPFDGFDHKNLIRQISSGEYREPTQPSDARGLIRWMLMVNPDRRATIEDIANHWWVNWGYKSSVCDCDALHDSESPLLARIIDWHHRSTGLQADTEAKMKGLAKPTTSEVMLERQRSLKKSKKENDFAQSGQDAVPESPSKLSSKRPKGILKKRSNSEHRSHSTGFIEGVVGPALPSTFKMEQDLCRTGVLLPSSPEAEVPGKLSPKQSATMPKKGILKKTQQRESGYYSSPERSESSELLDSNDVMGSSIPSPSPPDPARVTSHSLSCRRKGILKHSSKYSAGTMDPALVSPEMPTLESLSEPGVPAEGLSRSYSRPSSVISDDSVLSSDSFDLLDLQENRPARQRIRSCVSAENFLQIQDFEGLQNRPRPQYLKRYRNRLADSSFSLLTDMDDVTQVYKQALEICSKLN
Sequence of Serine/threonine-protein kinase pim-1 (Homo sapiens) (P11309 whole entry, looked up): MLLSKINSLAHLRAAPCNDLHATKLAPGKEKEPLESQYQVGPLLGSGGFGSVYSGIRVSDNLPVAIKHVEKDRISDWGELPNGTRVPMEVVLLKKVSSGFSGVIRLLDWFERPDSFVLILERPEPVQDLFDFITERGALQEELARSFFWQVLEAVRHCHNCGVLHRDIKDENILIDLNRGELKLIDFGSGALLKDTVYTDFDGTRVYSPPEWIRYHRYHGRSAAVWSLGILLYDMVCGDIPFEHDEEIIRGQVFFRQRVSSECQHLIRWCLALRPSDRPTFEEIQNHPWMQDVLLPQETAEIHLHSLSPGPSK
Sequence of Eukaryotic translation initiation factor 2-alpha kinase 1 (Homo sapiens) (Q9BQI3 whole entry): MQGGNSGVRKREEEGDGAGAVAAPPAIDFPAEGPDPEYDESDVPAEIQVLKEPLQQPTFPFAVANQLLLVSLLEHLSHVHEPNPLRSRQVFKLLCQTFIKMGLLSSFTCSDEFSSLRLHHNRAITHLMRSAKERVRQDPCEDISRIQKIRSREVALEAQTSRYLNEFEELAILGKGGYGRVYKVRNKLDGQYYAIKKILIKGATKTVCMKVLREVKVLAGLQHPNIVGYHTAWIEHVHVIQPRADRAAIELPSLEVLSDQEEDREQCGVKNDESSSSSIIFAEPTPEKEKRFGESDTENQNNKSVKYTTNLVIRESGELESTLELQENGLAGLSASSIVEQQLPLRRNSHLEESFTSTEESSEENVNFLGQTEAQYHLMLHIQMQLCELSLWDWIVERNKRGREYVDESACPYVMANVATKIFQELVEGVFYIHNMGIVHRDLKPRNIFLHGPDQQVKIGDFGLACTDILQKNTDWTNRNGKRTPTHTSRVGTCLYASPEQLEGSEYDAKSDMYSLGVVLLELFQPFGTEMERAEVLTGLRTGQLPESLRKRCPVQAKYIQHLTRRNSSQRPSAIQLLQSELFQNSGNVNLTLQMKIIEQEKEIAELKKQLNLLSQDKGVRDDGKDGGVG

CCC(=N\O)/C(C)=C/c1ccc(F)cc1 [A-079]
inactive: residual activity [1] 73% | residual activity [2] 100% | residual activity [3] 82% | residual activity [4] 100% | residual activity [5] 100% | inhibition [6] 15.1% | residual activity [7] 71% | residual activity [8] 100% | residual activity [9] 82% | inhibition [10] 6.81% | residual activity [11] 79% | residual activity [12] 100% | residual activity [13] 76% | residual activity [14] 77% | residual activity [15] 85% | residual activity [16] 85% | residual activity [17] 82% | residual activity [18] 88% | residual activity [19] 100% | inhibition [20] 15.6% | residual activity [21] 80% | residual activity [22] 100% | residual activity [23] 100% | residual activity [24] 100% | residual activity [25] 66% | residual activity [26] 100% | inhibition [27] 21.7% | inhibition [28] -5.9% | residual activity [29] 83% | residual activity [30] 76% | residual activity [31] 99% | residual activity [32] 97% | residual activity [33] 83% | residual activity [34] 100% | residual activity [35] 100% | residual activity [36] 100% | inhibition [37] 3.8% | inhibition [38] 12.2% | residual activity [39] 68% | residual activity [40] 94% | residual activity [41] 73% | residual activity [42] 76% | residual activity [43] 72% | inhibition [44] -9.69% | residual activity [45] 74%

CCC(=N\O)/C(C)=C/c1ccc(F)c(C)c1 [A-226]
inactive: residual activity [1] 100% | residual activity [2] 96% | residual activity [3] 90% | residual activity [4] 100% | residual activity [5] 100% | inhibition [6] 33.1% | residual activity [7] 100% | residual activity [8] 57% | residual activity [9] 82% | inhibition [10] 1.12% | residual activity [11] 100% | residual activity [12] 100% | residual activity [13] 99% | residual activity [14] 100% | residual activity [15] 88% | residual activity [16] 70% | residual activity [17] 100% | residual activity [18] 100% | residual activity [19] 100% | inhibition [20] -3.93% | residual activity [21] 86% | residual activity [22] 100% | residual activity [23] 100% | residual activity [24] 100% | residual activity [25] 98% | residual activity [26] 100% | inhibition [27] 40.8% | inhibition [28] -1.52% | residual activity [29] 100% | residual activity [30] 88% | residual activity [31] 96% | residual activity [32] 85% | residual activity [33] 100% | residual activity [34] 100% | residual activity [35] 93% | residual activity [36] 100% | inhibition [37] 0.56% | inhibition [38] 11.8% | residual activity [39] 89% | residual activity [40] 100% | residual activity [41] 100% | residual activity [42] 100% | residual activity [43] 100% | inhibition [44] -8.35% | residual activity [45] 80%
